Laboratory results taken from EPA's ToxValDB 9.5.
Several values for one entry are separate records, joined by “and”; a condition that tells them apart may be missing. Identical values can stand only once.

Key:
Mus musculus [1] = conditions: subchronic; duration: 6 weeks; oral; gavage; M; relative mRNA expression of TNF alpha/GAPDH in liver
Mus musculus [2] = conditions: oral
[3] = developmental, duration: 17 days, F, CD1, Developmental: 323% increased prenatal loss, 16.7% decreased live fetuses, 24.3% decreased neonatal survival
[4] = developmental, duration: 17 days, F, Developmental: Significantly reduced pup survival (46%) from birth to weaning
[5] = reproduction developmental, duration: 17 days, M, CD1, Body Weight: 32% reduced weight gain during pregnancy
[6] = short-term, duration: 14 days, M, CD1, 6-12% decreased in body weight gain
[7] = short-term, duration: 15 days, F, Body Weight: Weight loss (~5%)
[8] = short-term, duration: 15 days, F, Immunotoxicological: Reduced sRBC-specific response to IgM antibody titers
[9] = short-term, duration: 21 days, M, ICR, Body Weight: 17% decrease in weight gain
[10] = short-term, duration: 21 days, M, ICR, Hepatic: 27% increase in relative liver weight at ?0.5 mg/kg/day / increases in ALT at ?[…] / hepatocytomegaly at 18 mg/kg/day / necrosis…
[11] = short-term, duration: 28 days, M, CD1, Hepatic: Mild hepatocellular hypertrophy at ?0.29, moderate to severe hypertrophy and single cell necrosis at ?0.96 mg/kg/day / decreased …

Q: Which results are given for `O=C([O-])C(F)(F)C(F)(F)C(F)(F)C(F)(F)C(F)(F)C(F)(F)C(F)(F)F.[NH4+]` [Ammonium perfluorooctanoate]?
A: NOEL (Mus musculus [1]): 1 mg/kg-day; LOAEL (Mus musculus [2]; developmental, duration: 1 days, M, CD1, Developmental: Decreased spontaneous activity and altered response to cholinergic stimulant): 0.58 mg/kg-day; LOAEL (Mus musculus [2]; developmental, duration: 10 days, F, CD1, Developmental: Altered mammary gland development in female pups / reduced pup weight on PND 20): 5 mg/kg-day; LOAEL (Mus musculus [2]; developmental, duration: 10 days, F, CD1, Developmental: Delayed mammary gland development (30-60%) in female pups on PNDs 1-10 + Reproductive: Immature mammary gland morphology in …): 5 mg/kg-day; NOAEL (Mus musculus [2]; developmental, duration: 10 days, F, CD1, Hepatic: 40-120% increased relative liver weight in lactating dams on PNDs 1-10): 5 mg/kg-day; LOAEL (Mus musculus [2]; developmental, duration: 11 days, F, CD1, Developmental: Delayed mammary gland development (31-47%) in female pups on PNDs 22-32 and at 18 months): 5 mg/kg-day; LOAEL (Mus musculus [2]; developmental, duration: 11 days, F, CD1, Developmental: Reduced pup body weight at weaning, 43% in males and 35% in females): 5 mg/kg-day; NOAEL (Mus musculus [2]; developmental, duration: 12 days, F): 1 mg/kg-day; LOAEL (Mus musculus [2]; developmental, duration: 12 days, F, Developmental: 7-10% decrease in litter weight on PND 2): 0.5 mg/kg-day; NOAEL (Mus musculus [2]; developmental, duration: 17 days, F): 10 mg/kg-day; LOAEL (Mus musculus [2]; developmental, duration: 17 days, F, CD1, Developmental: 3 mg/kg/day: reduced weight gain through lactation (14.8% in males and 20.6% in females) / delayed eye opening and hair …): 3 mg/kg-day and 5 mg/kg-day; LOAEL (Mus musculus [2]; [3]): 5 mg/kg-day; NOAEL (Mus musculus [2]; [3]): 1 mg/kg-day; LOAEL (Mus musculus [2]; developmental, duration: 17 days, F, CD1, Developmental: Decreased birth weight (approximately 8%) and body weight at weaning (24%)): 5 mg/kg-day; LOAEL (Mus musculus [2]; developmental, duration: 17 days, F, CD1, Developmental: Delayed mammary gland development in female pups on PNDs 22-63 + Reproductive: Delayed mammary gland lactational …): 0.0024 mg/kg-day; LOAEL (Mus musculus [2]; developmental, duration: 17 days, F, CD1, Developmental: Delayed mammary gland development in female pups on PNDs 22-63 and at 18 months): 3 mg/kg-day; LOAEL (Mus musculus [2]; developmental, duration: 17 days, F, CD1, Developmental: Increased prenatal loss / 40% reduced neonatal body weight on PNDs 5 and 10): 5 mg/kg-day; LOAEL (Mus musculus [2]; developmental, duration: 17 days, F, CD1, Reproductive: Delayed mammary gland differentiation): 5 mg/kg-day; LOAEL (Mus musculus [2]; [4]): 0.6 mg/kg-day; NOAEL (Mus musculus [2]; [4]): 0.3 mg/kg-day; NOAEL (Mus musculus [2]; reproduction developmental, duration: 11 days, F, CD1, Body Weight: No alterations in dams dosed on GDs 15-17 + Hepatic: Increase in relative liver weight in dams dosed on GDs 13-17, 10-17, or 7-…): 20 mg/kg-day; NOAEL (Mus musculus [2]; reproduction developmental, duration: 17 days, F, CD1, Hepatic: Significant increase in relative and absolute maternal liver weight on PND 22 at ?3 mg/kg/day): 5 mg/kg-day; LOAEL (Mus musculus [2]; reproduction developmental, duration: 17 days, F, CD1, Reproductive: Delayed mammary gland lactational differentiation in dams on PND 22): 1 mg/kg-day; NOAEL (Mus musculus [2]; reproduction developmental, duration: 17 days, F, Hepatic: Increased absolute and relative liver weight of dams on PND 22 at ?1 mg/kg/day): 20 mg/kg-day; NOAEL (Mus musculus [2]; reproduction developmental, duration: 17 days, M, CD1, 38% increase in absolute liver weight at ?1 mg/kg/day): 1 mg/kg-day; LOAEL (Mus musculus [2]; [5]): 10 mg/kg-day; NOAEL (Mus musculus [2]; [5]): 5 mg/kg-day; NOAEL (Mus musculus [2]; short-term, duration: 14 days, M/F, CD1, Hepatic: 123-155% increase in absolute liver weight in 14 days at ?5.3 mg/kg/day): 537 mg/kg-day; LOAEL (Mus musculus [2]; [6]): 10 mg/kg-day; NOAEL (Mus musculus [2]; [6]): 3 mg/kg-day; NOAEL (Mus musculus [2]; short-term, duration: 14 days, M, CD1, Hepatic: Decreased serum cholesterol levels at ?0.3 mg/kg/day): 30 mg/kg-day; LOAEL (Mus musculus [2]; [7]): 15 mg/kg-day; NOAEL (Mus musculus [2]; [7]): 7.5 mg/kg-day; LOAEL (Mus musculus [2]; [8]): 3.75 mg/kg-day; NOAEL (Mus musculus [2]; [8]): 1.88 mg/kg-day; NOAEL (Mus musculus [2]; short-term, duration: 21 days, M/F, CD1, Hepatic: 39-41% increase in absolute liver weight at ?5.4 mg/kg/day): 5.4 mg/kg-day; NOAEL (Mus musculus [2]; short-term, duration: 21 days, M, ICR): 47 mg/kg-day; LOAEL (Mus musculus [2]; [9]): 18 mg/kg-day; NOAEL (Mus musculus [2]; [9]): 2.6 mg/kg-day; LOAEL (Mus musculus [2]; [10]): 47 mg/kg-day; NOAEL (Mus musculus [2]; [10]): 18 mg/kg-day; LOAEL (Mus musculus [2]; short-term, duration: 28 days, F, CD1, 5/5 died before 4th week of study): 58 mg/kg-day; LOAEL (Mus musculus [2]; short-term, duration: 28 days, F, CD1, Body Weight: Males: final body weight 20% lower than controls / females: final body weight 25% lower than controls): 5.8 mg/kg-day; NOAEL (Mus musculus [2]; short-term, duration: 28 days, M/F, CD1, Hepatic: 3-fold or greater increased absolute and relative liver weight and hepatocellular hypertrophy at ?5.4 mg/kg/day): 18 mg/kg-day; LOAEL (Mus musculus [2]; short-term, duration: 28 days, M, CD1, Body Weight: Males: final body weight 20% lower than controls / females: final body weight 25% lower than controls): 5.4 mg/kg-day; LOAEL (Mus musculus [2]; short-term, duration: 28 days, M, CD1, Body Weight: Weight loss (86% of controls)): 9.6 mg/kg-day; NOAEL (Mus musculus [2]; short-term, duration: 28 days, M, CD1, Body Weight: Weight loss (86% of controls) + Immunotoxicological: Decreased response to sRBC, decreased number of splenic and thymic …): 0.96 mg/kg-day; LOAEL (Mus musculus [2]; short-term, duration: 28 days, M, CD1, Death: 4/5 died before end of 4th week): 54 mg/kg-day; LOAEL (Mus musculus [2]; short-term, duration: 28 days, M, CD1, Death: 5/5 died before 2nd week of study): 180 mg/kg-day; LOAEL (Mus musculus [2]; [11]): 0.96 mg/kg-day; NOAEL (Mus musculus [2]; [11]): 0.29 mg/kg-day; LOAEL (Mus musculus [2]; short-term, duration: 28 days, M, CD1, Immunotoxicological: Decreased response to sRBC, decreased number of splenic and thymic lymphocytes): 9.6 mg/kg-day
